Laboratory results from ChEMBL document CHEMBL5370544, “Design, synthesis, and biological evaluation of 1-styrenyl isoquinoline derivatives for anti-hepatocellular carcinoma activity and effect on mitochondria” (Eur J Med Chem, 2023).
Active and inactive are the calls of the source. The rule behind the calls is not given here.

What was measured:
Huh-7 [1] = assay: Induction of apoptosis in human Huh-7 cells assessed as formation of apoptotic bodies at 0.9 to 8.1 uM incubated for 24 hrs by giemsa staining based micrscopic analysis; format: functional, cell-based; conditions: dose 0.9-8.1 µM
Huh-7 [2] = assay: Antitumor activity against human Huh-7 cells xenografted in BALB/c mouse assessed as reduction in tumor growth at 15 to 30 mg/kg, ip qd measured after 5 days; format: functional, organism-based; conditions: dose 15-30 mg/kg, time 5.0 day
SK-HEP1 [3] = assay: Induction of apoptosis in human SK-HEP1 cells assessed as increase in cleaved caspase-9 expression at 1.5 to 13.5 uM incubated for 48 hrs by Western blotting analysis; format: functional, cell-based; conditions: dose 1.5-13.5 µM
Huh-7 [4] = assay: Induction of cell cycle arrest in human Huh-7 cells assessed as increase in accumulation of cells at G2/M phase incubated for 24 hrs by propidium iodide staining based flow cytometry analysis; format: functional; conditions: dose 0.9-8.1 µM
SK-HEP1 [5] = assay: Induction of mitochondrial membrane potential depolarization in human SK-HEP1 cells incubated for 24 hrs by TMRE staining based flow cytometry analysis; format: functional, cell-based; conditions: dose 1.5-13.5 µM
Huh-7 [6] = assay: Induction of apoptosis in human Huh-7 cells assessed as genomic DNA fragmentation at 0.9 to 8.1 uM incubated for 24 hrs by giemsa staining based micrscopic analysis; format: functional, cell-based; conditions: dose 0.9-8.1 µM
Huh-7 [7] = assay: Induction of apoptosis in human Huh-7 cells assessed as increase in Bax expression at 0.9 to 8.1 uM incubated for 48 hrs by Western blotting analysis; format: functional, cell-based; conditions: dose 0.9-8.1 µM
SK-HEP1 [8] = assay: Induction of apoptosis in human SK-HEP1 cells assessed as inhibition of Bcl-2 expression incubated for 48 hrs by Western blotting analysis; format: functional, cell-based; conditions: dose 1.5-13.5 µM
Huh-7 [9] = assay: Induction of cell cycle arrest in human Huh-7 cells assessed as decrease in cyclin B1 expression incubated for 48 hrs by Western blotting analysis; format: functional, cell-based; conditions: dose 0.9-8.1 µM
SK-HEP1 [10] = assay: Induction of apoptosis in human SK-HEP1 cells assessed as increase in Bax expression at 1.5 to 13.5 uM incubated for 48 hrs by Western blotting analysis; format: functional, cell-based; conditions: dose 1.5-13.5 µM
Huh-7 [11] = assay: Induction of mitochondrial membrane potential depolarization in human Huh-7 cells incubated for 24 hrs by TMRE staining based flow cytometry analysis; format: functional, cell-based; conditions: dose 0.9-8.1 µM
Huh-7 [12] = assay: Antitumor activity against human Huh-7 cells xenografted in BALB/c mouse assessed as tumor growth inhibition at 30 mg/kg, ip qd measured after 14 days; format: functional; conditions: Huh-7, 336 h, time 14 day, read-out: TGI
[13] = molecular target: Serine/threonine-protein kinase mTOR (Homo sapiens) (UniProt P42345); assay: Inhibition of mTOR signalling pathway in human Huh-7 cells assessed as inhibition of mTOR phosphorylation at 0.9 to 8.1 uM measured after 48 hrs by Western blotting analysis; format: cell-based; conditions: dose 0.9-8.1 µM
SK-HEP1 [14] = assay: Inhibition of colony formation in human SK-HEP1 cells assessed as reduction in number of cell colonies at 1.25 to 5 uM measured after 10 and 14 days by crystal violet staining based light microscopic analysis; format: functional; conditions: dose 1.25-5 µM, time 14.0 day
SK-HEP1 [15] = assay: Induction of apoptosis in human SK-HEP1 cells assessed as increase in proportion of late apoptosis at 1.5 to 13.5 uM incubated for 24 hrs by Annexin V-AbFluor 488/propidium iodide staining based flow cytometry analysis; format: functional, cell-based; conditions: dose 1.5-13.5 µM
Huh-7 [16] = assay: Induction of apoptosis in human Huh-7 cells assessed as inhibition of caspase-9 expression incubated for 48 hrs by Western blotting analysis; format: functional, cell-based; conditions: dose 0.9-8.1 µM
Huh-7 [17] = assay: Antiinvasive activity in human Huh-7 cells assessed as reduction in number of invasive cells at 0.55 to 2.2 uM incubated for 24 hrs by transwell invasion assay; format: functional, cell-based; conditions: dose 0.55-2.2 µM
Huh-7 [18] = assay: Induction of apoptosis in human Huh-7 cells assessed as increase in cytochrome-C expression at 0.9 to 8.1 uM incubated for 48 hrs by Western blotting analysis; format: functional, cell-based; conditions: dose 0.9-8.1 µM
Huh-7 [19] = assay: Induction of apoptosis in human Huh-7 cells assessed as inhibition of caspase-3 expression incubated for 48 hrs by Western blotting analysis; format: functional, cell-based; conditions: dose 0.9-8.1 µM
Huh-7 [20] = assay: Induction of apoptosis in human Huh-7 cells assessed as increase in cleaved caspase-9 expression at 0.9 to 8.1 uM incubated for 48 hrs by Western blotting analysis; format: functional, cell-based; conditions: dose 0.9-8.1 µM
SK-HEP1 [21] = assay: Induction of cell cycle arrest in human SK-HEP1 cells assessed as decrease in cyclin A expression incubated for 48 hrs by Western blotting analysis; format: functional, cell-based; conditions: dose 1.5-13.5 µM
Huh-7 [22] = assay: Inhibition of cell migration in human Huh-7 cells incubated for 24 hrs by scratch wound healing assay; format: functional, cell-based; conditions: dose 0.55-2.2 µM
SK-HEP1 [23] = assay: Induction of apoptosis in human SK-HEP1 cells assessed as nuclear membrane breakdown at 1.5 to 13.5 uM incubated for 24 hrs by giemsa staining based micrscopic analysis; format: functional, cell-based; conditions: dose 1.5-13.5 µM
Huh-7 [24] = assay: Induction of apoptosis in human Huh-7 cells assessed as cell shrinkage at 0.9 to 8.1 uM incubated for 24 hrs by giemsa staining based micrscopic analysis; format: functional; conditions: dose 0.9-8.1 µM
SK-HEP1 [25] = assay: Antiproliferative activity against human SK-HEP1 cells assessed as inhibition of cell growth upto 2 uM by MTT assay; format: functional, cell-based; conditions: time 72.0 hrs, TDE = time-dependent effect
SK-HEP1 [26] = assay: Antiinvasive activity in human SK-HEP1 cells assessed as reduction in number of invasive cells at 1.25 to 5 uM incubated for 24 hrs by transwell invasion assay; format: functional, cell-based; conditions: dose 1.25-5 µM
Huh-7 [27] = assay: Induction of apoptosis in human Huh-7 cells assessed as increase in proportion of late apoptosis at 0.9 to 8.1 uM incubated for 24 hrs by Annexin V-AbFluor 488/propidium iodide staining based flow cytometry analysis; format: functional, cell-based; conditions: dose 0.9-8.1 µM
Huh-7 [28] = assay: Inhibition of PI3K signalling pathway in human Huh-7 cells assessed as inhibition of PI3K phosphorylation at 0.9 to 8.1 uM measured after 48 hrs by Western blotting analysis; format: cell-based; conditions: dose 0.9-8.1 µM
HepG2 = assay: Antiproliferative activity against human HepG2 cells assessed as inhibition of cell growth measured after 72 hrs by MTT assay; format: functional, cell-based; conditions: HepG2, 72 h
SK-HEP1 [29] = assay: Induction of apoptosis in human SK-HEP1 cells assessed as increase in cytochrome-C expression at 1.5 to 13.5 uM incubated for 48 hrs by Western blotting analysis; format: functional, cell-based; conditions: dose 1.5-13.5 µM
SK-HEP1 [30] = assay: Induction of cell cycle arrest in human SK-HEP1 cells assessed as decrease in cyclin B1 expression incubated for 48 hrs by Western blotting analysis; format: functional, cell-based; conditions: dose 1.5-13.5 µM
SK-HEP1 [31] = assay: Inhibition of PI3K signalling pathway in human SK-HEP1 cells assessed as inhibition of PI3K phosphorylation at 1.5 to 13.5 uM measured after 48 hrs by Western blotting analysis; format: cell-based; conditions: dose 1.5-13.5 µM
Huh-7 [32] = assay: Induction of cell cycle arrest in human Huh-7 cells assessed as decrease in CDK1 expression incubated for 48 hrs by Western blotting analysis; format: functional, cell-based; conditions: dose 0.9-8.1 µM
SK-HEP1 [33] = assay: Induction of apoptosis in human SK-HEP1 cells assessed as genomic DNA fragmentation at 1.5 to 13.5 uM incubated for 24 hrs by giemsa staining based micrscopic analysis; format: functional, cell-based; conditions: dose 1.5-13.5 µM
SK-HEP1 [34] = assay: Induction of apoptosis in human SK-HEP1 cells assessed as cell shrinkage at 1.5 to 13.5 uM incubated for 24 hrs by giemsa staining based micrscopic analysis; format: functional; conditions: dose 1.5-13.5 µM
SK-HEP1 [35] = assay: Induction of apoptosis in human SK-HEP1 cells assessed as inhibition of caspase-9 expression incubated for 48 hrs by Western blotting analysis; format: functional, cell-based; conditions: dose 1.5-13.5 µM

Question: Which Activity (Huh-7 [1]) does the source give for CC(=O)Oc1ccccc1/C=C/c1nccc2ccccc12 here?
Answer: Active

Question: And the Activity (Huh-7 [2])?
Answer: Active

Question: And the Activity (SK-HEP1 [3])?
Answer: Active

Question: And the Activity (Huh-7 [4])?
Answer: Dose-Dependent Effect

Question: And the Activity (SK-HEP1 [5])?
Answer: Dose-Dependent Effect

Question: And the Activity (Huh-7 [6])?
Answer: Active

Question: What about the Activity (Huh-7 [7]) of the same molecule?
Answer: Active

Question: What about the Activity (SK-HEP1 [8]) of the same molecule?
Answer: Dose-Dependent Effect

Question: What about the Activity (Huh-7 [9]) of the same molecule?
Answer: Dose-Dependent Effect

Question: What about the Activity (SK-HEP1 [10]) of the same molecule?
Answer: Active

Question: And the Activity (Huh-7 [11])?
Answer: Dose-Dependent Effect

Question: What about the inhibition in vivo at 30 mg/kg (Huh-7 [12]) of the same molecule?
Answer: 41.4%

Question: And the Activity [13]?
Answer: Active

Question: What about the inhibition (SK-HEP1 [14]) of the same molecule?
Answer: Active

Question: What about the Activity (SK-HEP1 [15]) of the same molecule?
Answer: Active

Question: What about the Activity (Huh-7 [16]) of the same molecule?
Answer: Dose-Dependent Effect

Question: And the Activity (Huh-7 [17])?
Answer: Active

Question: What about the Activity (Huh-7 [18]) of the same molecule?
Answer: Active

Question: What about the Activity (Huh-7 [19]) of the same molecule?
Answer: Dose-Dependent Effect

Question: What about the Activity (Huh-7 [20]) of the same molecule?
Answer: Active

Question: What about the Activity (SK-HEP1 [21]) of the same molecule?
Answer: Dose-Dependent Effect

Question: What about the inhibition (Huh-7 [22]) of the same molecule?
Answer: Dose-Dependent Effect

Question: What about the Activity (SK-HEP1 [23]) of the same molecule?
Answer: Active

Question: And the Activity (Huh-7 [24])?
Answer: Active

Question: And the Activity (SK-HEP1 [25])?
Answer: Tde

Question: And the Activity (SK-HEP1 [26])?
Answer: Active

Question: And the Activity (Huh-7 [27])?
Answer: Active

Question: And the inhibition (Huh-7 [28])?
Answer: Active

Question: What about the IC50 (HepG2) of the same molecule?
Answer: 9.76 µM

Question: What about the Activity (SK-HEP1 [29]) of the same molecule?
Answer: Active

Question: What about the Activity (SK-HEP1 [30]) of the same molecule?
Answer: Dose-Dependent Effect

Question: And the inhibition (SK-HEP1 [31])?
Answer: Active

Question: What about the Activity (Huh-7 [32]) of the same molecule?
Answer: Dose-Dependent Effect

Question: What about the Activity (SK-HEP1 [33]) of the same molecule?
Answer: Active

Question: And the Activity (SK-HEP1 [34])?
Answer: Active

Question: What about the Activity (SK-HEP1 [35]) of the same molecule?
Answer: Dose-Dependent Effect
